The text below walks through data of patent US12589156B2, “Benzimidazole and benzimidazolone based protac compounds for the targeted degradation of leucine rich repeat kinase 2 (LRRK2)” (Arvinas Operations, Inc., priority 2023, dated 2026).

This experiment addresses T1, WT LRRK2 (Homo sapiens, UniProt Q5S007).
T1 construct: endogenous in cells; host or cells: HEK293 (endogenous LRRK2 gene knock-in tagged with HiBit; stably expressing CMV-driven firefly luciferase)
The experiment can be described thus: LRRK2 HiBit degradation assay (Nano-Glo Dual Luciferase) in HEK293 cells with HiBit-tagged endogenous LRRK2. The class given is cell-based. The essentials: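 HEK293 cells carrying endogenous C-terminally HiBit-tagged LRRK2 and stably expressing CMV-driven firefly luciferase were treated for 24 h at 37° C with an 11-point 1:3 series from a 1 μM final top concentration. Nano-Glo Dual Luciferase read LRRK2-HiBit against firefly signal. Alamar Blue gave viability, and signals were normalized to DMSO median before curve fitting.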
In general terms: With HiBiT, luminescence reflects the tagged protein that the partner subunit can reach.

[1] abbreviates: Table 2, HiBit-tagged LRRK2 in HEK293 cells, 24 hours treatment, starting concentration 1 μM.

T1 sequence (Q5S007 whole entry): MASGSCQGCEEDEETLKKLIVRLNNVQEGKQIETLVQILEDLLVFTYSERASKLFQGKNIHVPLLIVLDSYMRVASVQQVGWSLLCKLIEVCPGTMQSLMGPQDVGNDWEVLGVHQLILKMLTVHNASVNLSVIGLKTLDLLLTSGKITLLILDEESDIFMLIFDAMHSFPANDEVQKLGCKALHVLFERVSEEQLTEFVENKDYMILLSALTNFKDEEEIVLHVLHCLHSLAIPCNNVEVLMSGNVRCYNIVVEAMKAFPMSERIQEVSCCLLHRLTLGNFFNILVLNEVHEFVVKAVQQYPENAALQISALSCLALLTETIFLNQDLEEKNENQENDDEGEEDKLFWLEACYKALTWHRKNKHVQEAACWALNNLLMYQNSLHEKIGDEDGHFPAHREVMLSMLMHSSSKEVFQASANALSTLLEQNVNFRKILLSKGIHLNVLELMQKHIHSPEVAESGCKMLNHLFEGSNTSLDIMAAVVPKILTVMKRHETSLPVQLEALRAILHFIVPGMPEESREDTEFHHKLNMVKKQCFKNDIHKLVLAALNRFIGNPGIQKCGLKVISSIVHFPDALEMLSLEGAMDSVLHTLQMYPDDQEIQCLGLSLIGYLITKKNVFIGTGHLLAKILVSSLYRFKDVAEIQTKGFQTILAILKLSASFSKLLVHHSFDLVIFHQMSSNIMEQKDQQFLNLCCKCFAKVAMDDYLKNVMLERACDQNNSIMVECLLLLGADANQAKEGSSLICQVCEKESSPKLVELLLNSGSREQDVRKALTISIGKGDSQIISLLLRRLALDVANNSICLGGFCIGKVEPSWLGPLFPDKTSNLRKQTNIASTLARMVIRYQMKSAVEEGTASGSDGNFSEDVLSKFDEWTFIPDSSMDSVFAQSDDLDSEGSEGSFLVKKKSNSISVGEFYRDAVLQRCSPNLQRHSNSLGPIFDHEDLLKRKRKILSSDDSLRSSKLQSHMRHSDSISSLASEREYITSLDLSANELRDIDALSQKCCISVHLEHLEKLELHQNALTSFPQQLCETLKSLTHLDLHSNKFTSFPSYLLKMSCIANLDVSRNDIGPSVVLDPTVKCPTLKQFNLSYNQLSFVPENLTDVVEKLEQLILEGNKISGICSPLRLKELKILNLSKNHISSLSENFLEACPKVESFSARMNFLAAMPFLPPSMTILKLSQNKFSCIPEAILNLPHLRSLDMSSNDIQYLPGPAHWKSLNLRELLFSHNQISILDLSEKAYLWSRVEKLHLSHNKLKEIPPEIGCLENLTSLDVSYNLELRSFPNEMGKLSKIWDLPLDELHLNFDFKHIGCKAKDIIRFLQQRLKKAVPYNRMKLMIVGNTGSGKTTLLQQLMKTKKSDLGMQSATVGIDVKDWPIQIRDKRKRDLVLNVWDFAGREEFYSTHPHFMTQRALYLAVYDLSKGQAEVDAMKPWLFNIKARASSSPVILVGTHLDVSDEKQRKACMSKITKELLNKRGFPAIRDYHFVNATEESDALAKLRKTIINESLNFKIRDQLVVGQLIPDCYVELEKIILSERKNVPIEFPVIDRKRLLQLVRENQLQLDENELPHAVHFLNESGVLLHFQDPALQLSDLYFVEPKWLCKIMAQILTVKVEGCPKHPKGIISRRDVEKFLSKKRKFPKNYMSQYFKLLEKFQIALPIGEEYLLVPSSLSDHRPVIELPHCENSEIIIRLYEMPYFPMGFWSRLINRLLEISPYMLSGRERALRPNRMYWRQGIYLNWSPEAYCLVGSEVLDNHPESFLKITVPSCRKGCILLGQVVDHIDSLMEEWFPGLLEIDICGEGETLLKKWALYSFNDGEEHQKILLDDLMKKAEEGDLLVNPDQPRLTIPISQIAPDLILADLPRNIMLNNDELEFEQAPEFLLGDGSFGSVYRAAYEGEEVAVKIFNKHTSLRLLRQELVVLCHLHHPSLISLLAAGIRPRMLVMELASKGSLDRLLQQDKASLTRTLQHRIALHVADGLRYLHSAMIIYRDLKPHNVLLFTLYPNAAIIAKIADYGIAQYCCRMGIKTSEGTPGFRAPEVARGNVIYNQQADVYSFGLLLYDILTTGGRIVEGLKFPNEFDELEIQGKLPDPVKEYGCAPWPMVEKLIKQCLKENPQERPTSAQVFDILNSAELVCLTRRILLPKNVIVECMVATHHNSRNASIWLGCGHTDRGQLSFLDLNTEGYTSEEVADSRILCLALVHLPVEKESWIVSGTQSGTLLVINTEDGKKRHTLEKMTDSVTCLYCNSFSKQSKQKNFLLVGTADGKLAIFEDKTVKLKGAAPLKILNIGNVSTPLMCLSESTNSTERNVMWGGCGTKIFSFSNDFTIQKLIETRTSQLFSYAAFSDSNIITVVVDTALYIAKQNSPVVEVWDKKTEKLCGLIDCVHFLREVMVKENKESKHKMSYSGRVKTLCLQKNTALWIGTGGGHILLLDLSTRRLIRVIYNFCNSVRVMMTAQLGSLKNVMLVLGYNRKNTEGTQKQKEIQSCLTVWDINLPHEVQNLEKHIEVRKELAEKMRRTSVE

A word on the Dmax: it is the greatest extent of degradation seen. High values mean deep degradation, low ones shallow degradation. Broadly, the DC50 is the concentration at which degradation of the target reaches its halfway point. For the molecule `Cn1c(=O)n(C2CCC(=O)NC2=O)c2ccc(N3CCC(CN4CCN(CC5CCN(c6cc(-c7n[nH]c8ccc(OC9(C)CC9)cc78)ncn6)CC5)C(C)(C)C4)CC3)cc21` (stereo not drawn) [Compound 14, 3-{5-[4-({3,3-dimethyl-4-[(1-{6-[5-(1-methylcyclopropoxy)-1H-indazol-3-yl]pyrimidin-4-yl}piperidin-4-yl)methyl]piperazin-1-yl}methyl)piperidin-1-yl]-3-methyl-2-oxo-2,3-dihydro-1H-1,3-benzodiazol-1-yl}piperidine-2,6-dione], the Dmax by setting is: (HEK293, Table 2, maximal degradation, HiBit-tagged LRRK2 in HEK293 cells, 24 hours treatment) 58%; (HEK293, Table 3, comparison with direct comparators, maximal degradation) 58%. The DC50 is, setting by setting: under setting [1], 220 pM; (Table 3, comparison with direct comparators, HiBit-tagged LRRK2 in HEK293 cells, 24 hours treatment) 220 pM.
The molecule `CC(C)Oc1ccc2[nH]nc(-c3cc(N4CCN(CC5CCC(OC6CCN(c7ccc8c(c7)n(C)c(=O)n8C7CCC(=O)NC7=O)CC6)CC5)CC4)ncn3)c2c1` (stereo not drawn) [Compound 55, rel-3-[3-methyl-2-oxo-5-(4-{[(1r,4r)-4-[(4-{6-[5-(propan-2-yloxy)-1H-indazol-3-yl]pyrimidin-4-yl}piperazin-1-yl)methyl]cyclohexyl]oxy}piperidin-1-yl)-2,3-dihydro-1H-1,3-benzodiazol-1-yl]piperidine-2,6-dione] registered a DC50 under setting [1] of 1500 pM. The “WT LRRK2 **Dmax (%)” value (Table 2, maximal degradation, HiBit-tagged LRRK2 in HEK293 cells, 24 hours treatment) was 53%.
